Measured values taken from BindingDB's records for doi:10.1016/S0960-894X(01)80235-3 (1994).

Target: O-acyltransferase (Oryctolagus cuniculus, UniProt G1SFD9)
Assay: ChEBML_28168
Description: In vitro Acyl coenzyme A:cholesterol acyltransferase inhibition by incubation with [14C]oleolyl-CoA and intestinal microsomes isolated from cholesterol-fed rabbits.

Sequence of O-acyltransferase (G1SFD9 1-524): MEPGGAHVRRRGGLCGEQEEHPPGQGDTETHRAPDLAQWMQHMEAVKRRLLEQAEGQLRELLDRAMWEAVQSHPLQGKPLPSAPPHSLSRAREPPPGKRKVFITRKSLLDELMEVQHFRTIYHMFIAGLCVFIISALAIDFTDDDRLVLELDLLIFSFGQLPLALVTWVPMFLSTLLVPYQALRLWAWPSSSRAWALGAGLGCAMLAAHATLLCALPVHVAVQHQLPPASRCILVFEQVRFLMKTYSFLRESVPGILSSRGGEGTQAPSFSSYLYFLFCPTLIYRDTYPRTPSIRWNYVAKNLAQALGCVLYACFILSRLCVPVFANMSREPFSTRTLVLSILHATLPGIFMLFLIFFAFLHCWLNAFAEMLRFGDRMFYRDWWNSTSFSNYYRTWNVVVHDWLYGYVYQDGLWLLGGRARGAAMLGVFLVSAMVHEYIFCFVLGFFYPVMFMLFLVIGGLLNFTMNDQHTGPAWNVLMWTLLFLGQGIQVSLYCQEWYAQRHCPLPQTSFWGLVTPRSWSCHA

Row | Compound | IC50
1 | CCCCCCCC/C=C\CCCCCCCc1cc(=O)n(-c2ccc(F)cc2F)[nH]1 [2-(2,4-Difluoro-phenyl)-5-((Z)-heptadec-8-enyl)-2,4-dihydro-pyrazol-3-one] | 5 µM
2 | CCCCCCCC/C=C\CCCCCCCc1cc(=O)n(-c2ccc(C)cc2C)[nH]1 [2-(2,4-Dimethyl-phenyl)-5-((Z)-heptadec-8-enyl)-2,4-dihydro-pyrazol-3-one] | 5 µM
3 | CCCCCCCC/C=C\CCCCCCC[c+]1cc(O)n(-c2ccc([N+](=O)[O-])cc2[N+](=O)[O-])[n-]1 [2-(2,4-Dinitro-phenyl)-5-((Z)-heptadec-8-enyl)-2,4-dihydro-pyrazol-3-one] | 5 µM
4 | CCCCCCCCCCc1cc(=O)n(-c2c(C)cccc2C)[nH]1 [5-Decyl-2-(2,6-dimethyl-phenyl)-2,4-dihydro-pyrazol-3-one] | 5 µM
